The values that follow come from patent publication US7790751B2, “Azinyl-3-sulfonylindazole derivatives as 5-hydroxytryptamine-6 ligands” (Wyeth LLC, priority 2005, dated 2010).

Where a name gives a salt, the structure may show the parent alone. Where only a bound is given, the exact number is not on record here.

The target of this assay is human cloned 5-HT6 receptors (Homo sapiens, UniProt P50406). Description: Evaluation of 5-HT6 binding affinity of test compounds ([3H]-LSD displacement).
Chain of human cloned 5-HT6 receptors (P50406 whole entry): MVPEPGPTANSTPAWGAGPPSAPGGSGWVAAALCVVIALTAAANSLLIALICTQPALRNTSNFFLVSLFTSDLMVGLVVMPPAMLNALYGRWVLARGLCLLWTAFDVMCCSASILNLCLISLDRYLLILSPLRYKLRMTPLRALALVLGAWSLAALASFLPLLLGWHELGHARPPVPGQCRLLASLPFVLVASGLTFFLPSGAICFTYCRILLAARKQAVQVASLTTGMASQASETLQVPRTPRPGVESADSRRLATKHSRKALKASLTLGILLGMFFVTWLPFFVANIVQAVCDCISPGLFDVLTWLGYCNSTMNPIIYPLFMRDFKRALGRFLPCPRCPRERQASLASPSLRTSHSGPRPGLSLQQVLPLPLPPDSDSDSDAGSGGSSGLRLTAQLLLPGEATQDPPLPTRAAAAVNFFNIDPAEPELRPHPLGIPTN

With `O=S(=O)(c1cccc2ccccc12)c1n[nH]c2ccc(OC3CCNC3)cc12` (centres unmarked) [Example 1, 3-(Naphthalene-1-sulfonyl)-5-(pyrrolidin-3-yloxy)-1H-indazole], the Ki was 0.01 to 10 nM. With `CCCCN1CCC(Oc2ccc3[nH]nc(S(=O)(=O)c4cccc5ccccc45)c3c2)C1` (centres unmarked) [Example 2, 5-(1-Butylpyrrolidin-3-yloxy)-3-(1-naphthylsulfonyl)-1H-indazole Hydrochloride] the figure was 0.01 to 10 nM; with `CCCN1CCC(Oc2ccc3[nH]nc(S(=O)(=O)c4cccc5ccccc45)c3c2)C1` (centres unmarked) [Example 3, 3-(Naphthalene-1-sulfonyl)-5-(1-propyl-pyrrolidin-3-yloxy)-1H-indazole Hydrochloride], 0.01 to 10 nM; with `CC(C)N1CCC(Oc2ccc3[nH]nc(S(=O)(=O)c4cccc5ccccc45)c3c2)C1` (centres unmarked) [Example 4, 5-(1-Isopropyl-pyrrolidin-3-yloxy)-3-(naphthalene-1-sulfonyl)-1H-indazole Hydrochloride], 0.01 to 10 nM. Next, `CN1CCC(Oc2ccc3[nH]nc(S(=O)(=O)c4cccc5ccccc45)c3c2)C1` (centres unmarked) [Example 5, 5-(1-Methyl-pyrrolidin-3-yloxy)-3-(naphthalene-1-sulfonyl)-1H-indazole Hydrochloride]: 0.01 to 10 nM. Next, `O=S(=O)(c1cccc2ccccc12)c1n[nH]c2ccc(OC3CCNCC3)cc12` [Example 6, 3-(1-Naphthylsulfonyl)-5-(piperidin-4-yloxy)-1H-indazole Hydrochloride]: 0.01 to 10 nM; `O=S(=O)(c1ccccc1)c1n[nH]c2ccc(OC3CCNCC3)cc12` [Example 7, 3-(phenylsulfonyl)-5-(piperidin-4-yloxy)-1H-indazole]: 11 to 25 nM.

`O=S(=O)(c1cccc(F)c1)c1n[nH]c2ccc(OC3CCNCC3)cc12` [Example 8, 3-[(3-fluorophenyl)sulfonyl]-5-(piperidin-4-yloxy)-1H-indazole] came in with an inhibitory constant (Ki) of 11 to 25 nM.

Regarding `O=S(=O)(c1ccccc1Cl)c1n[nH]c2ccc(OC3CCNCC3)cc12` [Example 9, 3-[(2-chlorophenyl)sulfonyl]-5-(piperidin-4-yloxy)-1H-indazole], the inhibition constant (Ki) was more than 45 nM. With `O=S(=O)(c1cccc(Cl)c1)c1n[nH]c2ccc(OC3CCNCC3)cc12` [Example 10, 3-[(3-chlorophenyl)sulfonyl]-5-(piperidin-4-yloxy)-1H-indazole] the figure was 0.01 to 10 nM. With `O=S(=O)(c1ccc(Cl)cc1)c1n[nH]c2ccc(OC3CCNCC3)cc12` [Example 11, 3-[(4-chlorophenyl)sulfonyl]-5-(piperidin-4-yloxy)-1H-indazole] the figure was 11 to 25 nM; with `Cc1cccc(S(=O)(=O)c2n[nH]c3ccc(OC4CCNCC4)cc23)c1` [Example 12, 3-[(3-methylphenyl)sulfonyl]-5-(piperidin-4-yloxy)-1H-indazole], 0.01 to 10 nM; with `COc1cccc(S(=O)(=O)c2n[nH]c3ccc(OC4CCNCC4)cc23)c1` [Example 13, 3-[(3-methoxyphenyl)sulfonyl]-5-(piperidin-4-yloxy)-1H-indazole], 0.01 to 10 nM. With `COc1ccc(S(=O)(=O)c2n[nH]c3ccc(OC4CCNCC4)cc23)cc1` [Example 14, 3-[(4-methoxyphenyl)sulfonyl]-5-(piperidin-4-yloxy)-1H-indazole] the figure was more than 45 nM; with `O=S(=O)(c1cccc(C(F)(F)F)c1)c1n[nH]c2ccc(OC3CCNCC3)cc12` [Example 15, 5-(piperidin-4-yloxy)-3-{[3-(trifluoromethyl)phenyl]sulfonyl}-1H-indazole], 0.01 to 10 nM.

`O=S(=O)(c1ccc(C(F)(F)F)cc1)c1n[nH]c2ccc(OC3CCNCC3)cc12` [Example 16, 5-(piperidin-4-yloxy)-3-{[4-(trifluoromethyl)phenyl]sulfonyl}-1H-indazole] yielded a Ki of 11 to 25 nM. `CC(C)c1ccc(S(=O)(=O)c2n[nH]c3ccc(OC4CCNCC4)cc23)cc1` [Example 17, 3-[(4-isopropylphenyl)sulfonyl]-5-(piperidin-4-yloxy)-1H-indazole] registered a Ki of 11 to 25 nM. With `Cc1ccc(S(=O)(=O)c2n[nH]c3ccc(OC4CCNCC4)cc23)c2ccccc12` [Example 18, 3-[(4-methyl-1-naphthyl)sulfonyl]-5-(piperidin-4-yloxy)-1H-indazole] the figure was 0.01 to 10 nM.

In turn, `CCCN1CCC(Oc2ccc3[nH]nc(S(=O)(=O)c4cccc5ccccc45)c3c2)CC1` [Example 19, 3-(1-Naphthylsulfonyl)-5-(1-propylpiperidin-4-yloxy)-1H-indazole Hydrochloride] yielded a Ki of 0.01 to 10 nM. Next, `CCCCN1CCC(Oc2ccc3[nH]nc(S(=O)(=O)c4cccc5ccccc45)c3c2)CC1` [Example 20, 5-(1-Butylpiperidin-4-yloxy)-3-(1-naphthylsulfonyl)-1H-indazole Hydrochloride]: 0.01 to 10 nM; `CN1CCC(Oc2ccc3[nH]nc(S(=O)(=O)c4cccc5ccccc45)c3c2)CC1` [Example 21, 5-(1-Methylpiperidin-4-yloxy)-3-(1-naphthylsulfonyl)-1H-indazole Hydrochloride]: 0.01 to 10 nM. The molecule `CC(C)N1CCC(Oc2ccc3[nH]nc(S(=O)(=O)c4cccc5ccccc45)c3c2)CC1` [Example 22, 5-(1-Isopropylpiperidin-4-yloxy)-3-(1-naphthylsulfonyl)-1H-indazole Hydrochloride] displayed an inhibition constant (Ki) of 0.01 to 10 nM. `O=S(=O)(c1cccc2ccccc12)c1n[nH]c2ccc(OC3CCN(CCc4ccccc4)CC3)cc12` [Example 23, 3-(1-Naphthylsulfonyl)-5-{[1-(2-phenylethyl)piperidin-4-yl]oxy}-1H-indazole Hydrochloride] gave an inhibition constant Ki of 11 to 25 nM. Next, `CCN1CCC(Oc2ccc3[nH]nc(S(=O)(=O)c4cccc5ccccc45)c3c2)CC1` [Example 24, 5-[1-(Ethylpiperidin-4-yl)oxy]-3-(1-naphthylsulfonyl)-1H-indazole Hydrochloride]: 0.01 to 10 nM.

Consider `CCN1CCC(Oc2ccc3[nH]nc(S(=O)(=O)c4cccc5ccccc45)c3c2)C1` (centres unmarked) [Example 25, 5-[1-(Ethylpyrrolidin-3-yl)oxy]-3-(1-napthylsulfonyl)-1H-indazole Hydrochloride], for which the Ki lay within 0.01 to 10 nM. With `O=S(=O)(c1cccc2ccccc12)c1n[nH]c2ccc(OC3CCN(CCc4ccccc4)C3)cc12` (centres unmarked) [Example 26, 3-(1-Naphthylsulfonyl)-5-{[1-(2-phenylethyl)pyrrolidin-3-yl]oxy}-1H-indazole Hydrochloride] the figure was 11 to 25 nM; with `O=S(=O)(c1cccc2ccccc12)c1n[nH]c2ccc(NC3CCNCC3)cc12` [Example 30, [3-(1-Naphthylsulfonyl)-1H-indazol-5-yl]-piperidin-4-ylamine Dihydrochloride], 0.01 to 10 nM. Next, `O=S(=O)(c1cccc2ccccc12)c1n[nH]c2ccc(NCC3CCNCC3)cc12` [Example 31, 3-(1-Naphthylsulfonyl)-N-(piperidin-4-ylmethyl)-1H-indazol-5-amine Dihydrochloride]: 0.01 to 10 nM; `O=S(=O)(c1cccc2ccccc12)c1n[nH]c2ccc(NC3CCCNC3)cc12` (centres unmarked) [Example 32, 3-(1-Naphthylsulfonyl)-N-piperidin-3-yl-1H-indazol-5-amine Dihydrochloride]: 0.01 to 10 nM.

With `O=S(=O)(c1cccc2ccccc12)c1n[nH]c2cc(NC3CCNCC3)ccc12` [Example 33, 3-(1-Naphthylsulfonyl)-N-piperidin-4-yl-1H-indazol-6-amine Dihydrochloride], the Ki is more than 45 nM. In turn, `O=S(=O)(c1cccc2ccccc12)c1n[nH]c2cc(NC3CCCNC3)ccc12` (centres unmarked) [Example 34, 3-(1-Naphthylsulfonyl)-N-piperidin-3-yl-1H-indazol-6-amine Dihydrochloride] returned a Ki of more than 45 nM. The molecule `O=S(=O)(c1cccc2ccccc12)c1n[nH]c2cc(NCC3CCNCC3)ccc12` [Example 35, 3-(1-Naphthylsulfonyl)-N-(piperidin-4-ylmethyl)-1H-indazol-6-amine Dihydrochloride] displayed an inhibition constant Ki of 36 to 45 nM. Next, `O=S(=O)(c1cccc2ccccc12)c1n[nH]c2c(NC3CCNCC3)cccc12` [Example 36, 3-(1-Naphthylsulfonyl)-N-piperidin-4-yl-1H-indazol-7-amine Dihydrochloride]: 26 to 35 nM. `O=S(=O)(c1cccc2ccccc12)c1n[nH]c2c(NC3CCCNC3)cccc12` (centres unmarked) [Example 37, 3-(1-Naphthylsulfonyl)-N-piperidin-3-yl-1H-indazol-7-amine Dihydrochloride] yielded an inhibitory constant (Ki) of more than 45 nM. For `O=S(=O)(c1cccc2ccccc12)c1n[nH]c2c(NCC3CCNCC3)cccc12` [Example 38, 3-(1-Naphthylsulfonyl)-N-(piperidin-4-ylmethyl)-1H-indazol-7-amine Dihydrochloride], the inhibition constant (Ki) fell in the range of 11 to 25 nM. Turning to `O=S(=O)(c1cccc2ccccc12)c1n[nH]c2cccc(NC3CCNCC3)c12` [Example 39, 3-(1-Naphthylsulfonyl)-N-piperidin-4-yl-1H-indazol-4-amine Dihydrochloride], the inhibition constant Ki was 0.01 to 10 nM. With `O=S(=O)(c1cccc2ccccc12)c1n[nH]c2cccc(NC3CCCNC3)c12` (centres unmarked) [Example 40, 3-(1-Naphthylsulfonyl)-N-piperidin-3-yl-1H-indazol-4-amine Dihydrochloride] the figure was 0.01 to 10 nM. Next, `O=S(=O)(c1cccc2ccccc12)c1n[nH]c2cccc(NCC3CCNCC3)c12` [Example 41, 3-(1-Naphthylsulfonyl)-N-(piperidin-4-ylmethyl)-1H-indazol-4-amine Dihydrochloride]: 0.01 to 10 nM; `O=S(=O)(c1cccc(Cl)c1)c1n[nH]c2ccc(NC3CCNCC3)cc12` [Example 42, 3-[(3-chlorophenyl)sulfonyl]-N-piperidin-4-yl-1H-indazol-5-amine]: 0.01 to 10 nM; `O=S(=O)(c1ccc(Cl)cc1)c1n[nH]c2ccc(NC3CCNCC3)cc12` [Example 43, 3-[(4-chlorophenyl)sulfonyl]-N-piperidin-4-yl-1H-indazol-5-amine]: 0.01 to 10 nM.

With `O=S(=O)(c1ccc2ccccc2c1)c1n[nH]c2ccc(NC3CCNCC3)cc12` [Example 44, 3-(2-naphthylsulfonyl)-N-piperidin-4-yl-1H-indazol-5-amine], the inhibitory constant (Ki) was 0.01 to 10 nM.

The Ki is the dissociation constant of the complex between target and ligand, obtained from inhibition or displacement. High values mean a looser hold on the target, low ones a stronger hold on the target.
